# Test results reported in patent US20260207625A1, “New medical use of 3a-ethynyl-3ß hydroxyandrostan-17-one oxime” (priority 2022, published 2026).
# How the values were obtained:
# 6-OHDA rat model [1] = assay: Fatigue in treadmill test, 6-OHDA rats; format: in vivo; settings: golexanolone 50 mg/kg daily intragastric, 5 weeks after surgery, 9 days of treatment
# Description: A 6-OHDA rat model as described by Heo et al. (Curr Biol. 2020 Jan. 20; 30(2): pp. 276-291) and by Carvalho et al. (Mol. Neurodegener. 2013, 8: 14: Behavioral characterization of the 6-hydroxidopamine model of Parkinson's disease and pharmacological rescuing of non-motor deficits) is used.
# (§1) The unilaterally 6-hydroxydopamine (6-OHDA) rat model according to Carvalho M et al. in Molecular Neurodegeneration 2013, 8:14; pp. 1-11, was used.
# Eight week old Wistar-Han male rats (56 animals) (Charles River, Barcelona) were housed, two per cage, under standard laboratory conditions: 12 hour light-dark cycle, 22° C. room temperature, 55% relative humidity, food and water available ad libitum. All manipulations were done in accordance with the local regulations (European Union Directive 2010/63/EU). […]
# Fatigue was evaluated in a treadmill consisting of a motorized conveyor belt divided into two parallel sectors, each with an electrified grid. […] The value recorded during the last 15 minutes of each test (and the times it falls on the grid) is recorded. […]
# 6-OHDA rat model [2] = assay: Motor coordination, Motorater test (horizontal ladder); format: in vivo; settings: 6-OHDA rats; 50 mg/kg daily intragastric; 7 weeks after surgery, 3 weeks of treatment; versus control rats
# Description: as §1
# (§2) Under isoflurane (5% induction and then 2%) anesthesia the animals were placed on a stereotaxic frame with non-traumatic ear bars (Stoelting, USA), and unilaterally injected (left hemisphere) using an 30-gauge needle Hamilton syringe (Hamilton Company, Switzerland), with either vehicle (sham group, n=20) or 6-OHDA hydrochloride (Sigma, USA) (6-OHDA group, n=40) directly into the medial forebrain bundle (coordinates related to Bregma, AP=−4.4 mm; ML=−1.0 mm; DV=−7.8 mm; according to (Paxinos G, Watson C. The Rat Brain in Stereotaxic Coordinates. 4. San Diego, USA: Academic; 1998).
# At a rate of 1 μl/min, sham animals received 2 μl of 0.2 mg/ml ascorbic acid in 0.9% NaCl, and 6-OHDA animals were injected with 2 μl 6-OHDA hydrochloride (4 μg/μl) with 0.2 mg/ml ascorbic acid in 0.9% NaCl. […]
# Motor coordination was tested with the Motorater test (Zörner B, Filli L, Starkey M L, Gonzenbach R, Kasper H, Röthlisberger M, et al. Profiling locomotor recovery: comprehensive quantification of impairments after CNS damage in rodents. Nat Methods. 2010; 7(9): pp. 701-708). […] The performance is recorded from the bottom by a mobile high-speed camera at 200 frames per second. Failures to set a foot on the ladder stairs are quantified.
# 6-OHDA rat model [3] = assay: CatWalk test, initial dual stance; format: in vivo; settings: 6-OHDA rats; 50 mg/kg daily intragastric
# Description: as §1, §2
# (§3) At a rate of 1 μl/min, sham animals received 2 μl of 0.2 mg/ml ascorbic acid in 0.9% NaCl, and 6-OHDA animals were injected with 2 μl 6-OHDA hydrochloride (4 μg/μl) with 0.2 mg/ml ascorbic acid in 0.9% NaCl. After injection the syringe was left in place for 10 minutes to allow diffusion. […]
# (§4) The CatWalk™ system measures various aspects of locomotor pattern. Based on the position, pressure, and surface area of each footfall, multiple parameters are calculated. […] Paw print designations were assigned and data analysed using the CatWalk analysis software (v 7.1)
# Initial dual stance was evaluated in the catwalk test. […]
# 6-OHDA rat model [4] = assay: CatWalk test, locomotor gait swing; format: in vivo; settings: 6-OHDA rats; 50 mg/kg daily intragastric; 7 weeks after surgery, 3 weeks of treatment
# Description: as §1, §2, §3, §4
# Locomotor gait swing was evaluated in the catwalk test. […]
# 6-OHDA rat model [5] = assay: Object location memory test (OLM); format: in vivo; settings: 6-OHDA rats; 50 mg/kg daily intragastric; 6 weeks after surgery, 2 weeks of treatment
# Description: as §1, §2, §3
# The object location memory test (OLM) evaluates spatial location memory. […] The time exploring each object is analyzed. The discrimination ratio is calculated: (Time exploring new object location-time exploring old located object)/total time exploring the objects. […]
# 6-OHDA rat model [6] = assay: Anxiety, open arena test; format: in vivo; settings: 6-OHDA rats; 50 mg/kg daily intragastric; 5 weeks after surgery, 10 days of treatment
# Description: as §1, §2
# (§5) At a rate of 1 μl/min, sham animals received 2 μl of 0.2 mg/ml ascorbic acid in 0.9% NaCl, and 6-OHDA animals were injected with 2 μl 6-OHDA hydrochloride (4 μg/μl) with 0.2 mg/ml ascorbic acid in 0.9% NaCl. After injection the syringe was left in place for 10 minutes to allow diffusion.
# (§6) Rats positive in the apomorphine-induced rotation test (20 animals) were included in the study, together with 20 sham-operated controls. […]
# Anxiety was evaluated in an open arena during five minutes by measuring the time that the rat remains in the central zone, instead of close to the walls of the box, where the rats feel safer. […]
# 6-OHDA rat model [7] = assay: Sucrose preference test (anhedonia, depression); format: in vivo; settings: 6-OHDA rats; 50 mg/kg daily intragastric; 7 weeks after surgery, 3 weeks of treatment
# Description: as §1, §2, §5
# (§7) Rats positive in the apomorphine-induced rotation test (20 animals) were included in the study, together with 20 sham-operated controls. Golexanolone treatment (50 mg/kg, daily, intragastric) and vehicle treatment as negative controls started 4 weeks after surgery. […]
# [8] = system: tyrosine hydroxylase (TH); assay: Tyrosine hydroxylase content in striatum, immunohistochemistry; format: in vivo, rat; settings: 6-OHDA rats treated with golexanolone; 5 weeks after surgery; mean±SEM; untreated 6-OHDA rats 36±4%
# Description: as §1, §2, §5, §7
# Tyroxine hydroxylase (TH) was analysed according to Heo et al (Curr Biol. 2020 Jan. 20; 30(2): pp. 276-291). […]
# α-synuclein = α-synuclein content in striatum by Western blot; format: in vivo, rat; settings: 6-OHDA rats treated with golexanolone, 10 weeks after surgery, mean±SEM, untreated 6-OHDA rats 195±35%
# Description: as §1, §2, §3
# α-synuclein content was analyzed by Western blot. […] Membranes were scanned using the ScanJet 5300C (Hewlett-Packard, Amsterdam, the Netherlands) and band intensities were quantified using Alpha Imager 2200 version 3.1.3 (Alpha Innotech Corporation). Results were expressed as percentage of shams. […]
# microglia = assay: Microglia activation in striatum (perimeter of Iba1 stained cells); format: in vivo, rat; settings: 6-OHDA rats treated with golexanolone; 5 weeks after surgery; mean±SEM; untreated 6-OHDA 217±8, shams 254±1
# Description: as §1, §2, §5, §6
# In this Parkinson's Disease test model, microglia activation was analyzed by measuring the perimeter of individual Iba1 stained cells with IpWin2 software at 5 weeks after surgery.
# astrocytes = assay: Astrocytes activation in striatum (GFAP stained area); format: in vivo, rat; settings: 6-OHDA rats treated with golexanolone; 5 weeks after surgery; mean±SEM; untreated 6-OHDA rats 123±10%
# Description: as §1, §2, §5, §6
# Astrocytes activation was assessed at 5 weeks after surgery, by measuring the total GFAP stained area with Image J software. Results were expressed as percentage of shams.
# Astrocyte activation in the striatum was analysed by immunohistochemistry. […]
# [9] = system: 6-OHDA rats treated with L-DOPA; assay: L-dopa Induced Dyskinesia (LID) rat model, Abnormal Involuntary Movements (AIMs); format: in vivo; settings: 6 weeks of daily L-DOPA, 3 weeks of oral golexanolone, compared to group receiving only L-DOPA
# Method: The ability of golexanolone to reduce or eliminate L-dopa Induced Dyskinesia (LID) was analyzed. This test is described in FIG. 14.
# L-dopa Induced Dyskinesia (LID) was induced in a rat model described by Loiodice et al in ACS Chem Neurosci. 2018 Apr. 18; 9(4): pp. 762-772. Abnormal Involuntary Movements (AIM) was measured.
# Rats positive in the apomorphine test received daily L-DOPA treatment starting 4 weeks after surgery and oral golexanolone treatment starting 7 weeks after surgery.
# The experiment included the following groups: • 1) 6-OHDA rats treated with L-DOPA and receiving vehicle; • 2) 6-OHDA rats treated with golexanolone and treated with L-DOPA (n=12 per group). The appearance of a variety of AIMs were analyzed after 6 weeks of daily L-DOPA injections, and 3 weeks of golexanolone treatment, as described in Lundblad M et al; Eur J Neurosci. 2002 January; 15(1): pp. 120-132, and Loiodice et al in ACS Chem Neurosci. 2018 Apr. 18; 9(4): pp. 762-772.
# Axial AIMs, limb AIMs, orolingual AIMs and locomotive AIMs were evaluated. One hour after the daily dose of golexanolone, L-DOPA was injected and AIMs were analyzed every 20 minutes for a total of three hours, as shown in FIG. 15.
# As shown in this graph, there were less AIMs in the group of animals treated with golexanolone compared to the group who received only L-DOPA.
structure (smiles),measurement,setting,value
"C#C[C@]1(O)CC[C@@]2(C)C(CC[C@@H]3[C@@H]2CC[C@]2(C)/C(=N/O)CC[C@@H]32)C1 (stereo partly drawn) [golexanolone, 3α-ethynyl-3β-hydroxyandrostan-17-one oxime]","Fatigue (time in the treadmill, time in shock)",6-OHDA rat model [1],improved fatigue
same,Errors crossing the horizontal ladder (failures to set a foot on the ladder stairs),6-OHDA rat model [2],made less errors
same,Initial dual stance in the CatWalk test,6-OHDA rat model [3],improves initial dual stance
same,Locomotor gait swing in the CatWalk test,6-OHDA rat model [4],improved swing
same,Object location memory (discrimination ratio),6-OHDA rat model [5],improves object location memory
same,Anxiety (time in the central zone of open arena),6-OHDA rat model [6],improves anxiety
same,"Depression (anhedonia, sucrose preference)",6-OHDA rat model [7],improves depression
same,TH staining in the striatum,[8],62±11 % of shams
same,Level of α-synuclein in the injured striatum,α-synuclein,99±9 % of shams
same,Microglia activation: perimeter of individual Iba1 stained cells in the injured striatum,microglia,250±8 μm
same,Astrocyte activation: total GFAP stained area in the injured striatum,astrocytes,92±4 % of shams
same,"All AIMs (axial, limb, orolingual and locomotive) during three hours",[9],less AIMs
